Earlier results, collected in patent US20090011041A1, “Compositions for Correcting Age Related Changes of a Human Endocrine System and Methods for Producing a Pharmaceutical Form Bases on Said Compositions” (priority 2004, published 2009).
Like-named read-outs stand apart in the source and are kept apart here.

Columns and labels:
[1] = tested on: production of IL-6 by peripheral mononuclears; conditions: dose-dependent manner; p<0.01
[2] = tested on: diabetic mice
[3] = for distribution volume: after PO use
[4] = tested on: IGF-1 level; conditions: elderly patients; 50 mg/day; p<0.01
[5] = DHEA 50 mg/day, placebo effect less than 10%

Structure (SMILES) | production of IL-6 by peripheral mononuclears [1] | hyperglycemia and hyperinsulinemia [2] | distribution volume [3] | half-life period ([3]; b32) | half-life elimination period ([3]; b33) | metabolic clearance rate (MCR) ([3]; in vivo) | IGF-1 level [4] | improvement in the physical and mental state, females ([5]; females) | improvement in the physical and mental state, males ([5]; males) | half-life period ([3]; b33) | renal excretion, share of the elimination of DHEA-S and its metabolites ([3]; in vivo)
C[C@]12CCC(=O)C=C1CC[C@@H]1[C@@H]2CC[C@]2(C)C(=O)CC[C@@H]12 [androstenedione] | inhibit the production of IL-6 |  |  |  |  |  |  |  |  |  | 
C[C@]12CC[C@H](O)CC1=CC[C@@H]1[C@@H]2CC[C@]2(C)C(=O)CC[C@@H]12 [DHEA, dehydroepiandrosterone] | inhibit the production of IL-6 | reduces hyperglycemia and hyperinsulinemia | 17 to 38.5 L | 0.25 to 0.5 h | 0.25 to 0.633 h | 2000 L/day | increases the IGF-1 level | 84% | 67% |  | 
C[C@]12CC[C@H](OS(=O)(=O)O)CC1=CC[C@@H]1[C@@H]2CC[C@]2(C)C(=O)CC[C@@H]12 [DHEA-S, DHEA-sulfate] | inhibit the production of IL-6 |  | 8.5 to 9.3 L | 7 to 10 h |  | 5 to 20 L/day |  |  |  | 7 to 22 h | 51-73%
